From patent publication EP3117212B1, “METHOD OF STUDYING ABCG2 PROTEIN ACTIVITY AND USE OF 2-AMINOETHYL DIPHENYLBORINATE” (Uniwersytet Lodzki, priority 2014, dated 2015)
Where a chain is given by its changes, count along the chain named.

How the values were obtained:
Assay type in all cases: cell-based
human ABCG2 protein = biological target: T1, human ABCG2 protein (Homo sapiens, UniProt Q9UNQ0); assay: Polyphenol accumulation in SB MDCKII-BCRP cells with/without Ko143, APB conjugate fluorescence (substrate verification); details: 20 µM compound; for transport substrate for the ABCG2 protein: 1 h, 37°C, with/without 10 µM Ko143, significantly higher fluorescence with Ko143; for transport capacity: relative difference between fluorescence values with/without 10 µM Ko143
T1 construct: host or cells: MDCKII (SB MDCKII-BCRP cell line)
T1 sequence (Q9UNQ0 1-655): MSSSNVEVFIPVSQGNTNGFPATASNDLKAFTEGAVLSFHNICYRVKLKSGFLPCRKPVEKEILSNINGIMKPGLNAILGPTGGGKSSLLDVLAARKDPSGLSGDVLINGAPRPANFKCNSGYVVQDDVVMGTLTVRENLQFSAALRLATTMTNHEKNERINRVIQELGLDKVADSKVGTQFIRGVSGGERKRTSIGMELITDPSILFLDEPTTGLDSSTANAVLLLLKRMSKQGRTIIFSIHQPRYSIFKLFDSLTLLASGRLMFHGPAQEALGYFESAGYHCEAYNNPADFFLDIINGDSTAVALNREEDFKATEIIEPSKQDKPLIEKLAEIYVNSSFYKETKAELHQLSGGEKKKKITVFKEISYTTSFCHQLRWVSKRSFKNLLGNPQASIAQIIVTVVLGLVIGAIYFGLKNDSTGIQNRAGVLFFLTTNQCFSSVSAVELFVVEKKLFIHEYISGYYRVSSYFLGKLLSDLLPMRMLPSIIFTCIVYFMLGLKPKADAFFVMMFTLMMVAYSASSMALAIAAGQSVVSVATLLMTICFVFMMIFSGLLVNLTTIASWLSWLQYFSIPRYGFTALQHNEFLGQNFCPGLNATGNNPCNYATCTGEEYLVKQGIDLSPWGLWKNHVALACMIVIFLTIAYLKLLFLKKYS
From the text: The results are shown on Fig. 1. […] The relative difference between the fluorescence values leads to the conclusion that transport capacity is the highest for compounds 9, 3 and 1 and the lowest for compounds 2 and 6.
On Figure 1 fluorescence of the conjugates of APB and polyphenolic compounds is shown for the cell lysates (mean ± the standard error of the mean, n=5; statistically significant differences at the significance level <0.05 are marked with * symbol).

ABCG2 R482K = biological target: T2, ABCG2 R482K (Homo sapiens, UniProt Q9UNQ0, R482K); assay: Luteolin transport in transfected HeLa cells with/without Ko143, APB conjugate fluorescence; details: R482K variant in HeLa cells; 10 µM luteolin, 0 or 10 µM Ko143, 1 h
T2 construct: expressed in transfected cells; host or cells: HeLa, transient transfection (FuGene HD), pcDNA6.2/V5 vector
T2 sequence (Q9UNQ0 1-655 R482K): T1 sequence (Q9UNQ0 1-655) with R482K
Procedure: (§1) A plasmid expression vector for the ABCG2 protein was prepared using standard molecular biology techniques. The vector was obtained by cloning of a sequence encoding human ABCG2 and (as an N-terminal fusion protein within the same open reading frame) a sequence encoding TagGFP2 fluorescent protein (obtained from the pTagGFP2-C plasmid produced by Evrogen, cat. no. FP191) into the pcDNA6.2/V5 plasmid. Subsequently, a series of expression vectors for sequential variants of the ABCG2 protein were prepared by performing site-directed mutagenesis in the codons coding particular amino acids in this sequence. For this purpose the Quickchange Lightning kit for site-directed mutagenesis manufactered by AgilentStratagene (cat. no. 210513) was used, in full compliance with the manufacturer's instructions. In this way, the vectors encoding the following sequential variants of the ABCG2 protein were obtained (letters denote the standard IUPAC codes for amino acid residues changed with regard to the wild-type sequence, the number denotes the position of the amino acid residue in the polypeptide chain from the N-terminus of the protein): R482G,R482K, K86M.
(§2) 72 hours before the experiment, the cells were chemically transfected with the above mentioned plasmids using the FuGene HD reagent (product from Promega, cat. no. E2311). The transfection mixture contained 150 µl of OptiMEM culture medium (product from Life Technologies, cat. no. 31985070), 3.3 µg of plasmid DNA and 9.9 µl of Fugene HD. The mixture was vortexed, incubated for 5 minutes and added to 2 ml of medium and the cells on the 6-well plate. 24 hours before the experiment, the cells were plated on a standard black 96-well polystyrene microplate with surface modified for cell culture (product from Thermo Scientific Nunc cat. no. 137101) with 50,000 cells per well in standard DMEM culture medium (product from LifeTechnologies cat. no. 32430) supplemented with 10% fetal bovine serum. […] The cells were then incubated for 1 h in a standard incubator for in vitro cell culture in temperature of 37°C. The incubation was followed by removing the medium and the cells were washed twice with portions of 50 µl of buffered saline (PBS, product from Life Technologies cat. no. 10010) in temperature of 4°C. Then the cells were lysed (solubilized) in 100 µl of PBS with the following additives: 0.5% (v/v) Triton X-100 surfactant (product from Sigma Aldrich, cat. no. T8787) and 0.25 mg/ml 2-aminoethyl-diphenylborinate (APB, CAS no. 208-366-5, product from Sigma Aldrich, cat. no. D9754). The compound APB was added to the PBS solution from a stock solution in DMSO with a concentration of 250 mg/ml permanently stored in temperature of -20°C. The cells were lysed by shaking the microplate in room temperature for 5 minutes.

ABCG2 wild-type = biological target: T3, ABCG2 wild-type (Homo sapiens, UniProt Q9UNQ0); assay: as above; details: 10 µM luteolin, 0 or 10 µM Ko143, 1 h
T3 construct: expressed in transfected cells; host or cells: HeLa, transient transfection (FuGene HD), pcDNA6.2/V5 vector
T3 sequence (Q9UNQ0 1-655): T1 sequence (Q9UNQ0 1-655)
Procedure: as §1, §2

ABCG2 K86M = biological target: T4, ABCG2 K86M (Homo sapiens, UniProt Q9UNQ0, K86M); assay: as above; details: K86M variant in HeLa cells; 10 µM luteolin, 0 or 10 µM Ko143, 1 h
T4 construct: expressed in transfected cells; host or cells: HeLa, transient transfection (FuGene HD), pcDNA6.2/V5 vector
T4 sequence (Q9UNQ0 1-655 K86M): T1 sequence (Q9UNQ0 1-655) with K86M
Procedure: as §1, §2

ABCG2 R482G = biological target: T5, ABCG2 R482G (Homo sapiens, UniProt Q9UNQ0, R482G); assay: as above; details: R482G variant in HeLa cells; 10 µM luteolin, 0 or 10 µM Ko143, 1 h
T5 construct: expressed in transfected cells; host or cells: HeLa, transient transfection (FuGene HD), pcDNA6.2/V5 vector
T5 sequence (Q9UNQ0 1-655 R482G): T1 sequence (Q9UNQ0 1-655) with R482G
Procedure: as §1, §2

transport substrate for the ABCG2 protein (human ABCG2 protein) | transport capacity (human ABCG2 protein) | transport activity towards luteolin (ABCG2 wild-type) | transport activity towards luteolin (ABCG2 K86M) | transport activity towards luteolin (ABCG2 R482G) | Structure (SMILES) | transport activity towards luteolin (ABCG2 R482K)
ABCG2 protein substrates | highest |  |  |  | COc1ccc(OC)c(-c2oc3ccccc3c(=O)c2O)c1 [Compound 9, 2',5'-dimethoxy-3-hydroxyflavone] | 
ABCG2 protein substrates | lowest |  |  |  | COc1ccc2oc(-c3ccc(OC)c(OC)c3)c(O)c(=O)c2c1 [Compound 6, 6,3',4'-trimethoxy-3-hydroxyflavone] | 

More lines, now with the values behind:

Structure (SMILES) | transport substrate for the ABCG2 protein (human ABCG2 protein) | transport capacity (human ABCG2 protein) | transport activity towards luteolin (ABCG2 wild-type) | transport activity towards luteolin (ABCG2 K86M) | transport activity towards luteolin (ABCG2 R482G) | transport activity towards luteolin (ABCG2 R482K)
O=c1c(O)c(-c2ccc(O)c(O)c2)oc2cc(O)ccc12 [Compound 4, fisetin] | ABCG2 protein substrates |  |  |  |  | 
O=c1c(O)c(-c2ccc(O)c(O)c2)oc2cc(O)cc(O)c12 [Compound 1, quercetin] | ABCG2 protein substrates | highest |  |  |  | 
O=c1cc(-c2ccc(O)c(O)c2)oc2cc(O)cc(O)c12 [Compound 3, luteolin] | ABCG2 protein substrates | highest | similar, maximum transport activity | did not show any transport activity | similar, maximum transport activity | slightly decreased in relation to the wild-type
O=c1c(O)c(-c2ccc(O)cc2)oc2cc(O)cc(O)c12 [Compound 2, kaempferol] | ABCG2 protein substrates | lowest |  |  |  | 
